Reference: patent US20030143608A1, “Drug response marker in beta-1 adrenergic receptor gene” (Myriad Genetics, Incorporated, priority 2001, published 2003)

Tested on: patients with symptoms diagnosed as hypertension
Experiment: Antihypertensive drug response by beta-1 adrenergic receptor A145G genotype in hypertensive patients
Assay type: in vivo, human
Conditions: for Average Change in Blood Pressure: Sardinian hypertensive patients, atenolol 100 mg b.i.d., HCTZ 25 mg u.i.d. or fosinopril 20 mg u.i.d. for 2 months, change from baseline
Description: For our study, three drugs—fosinopril, atenolol, and hydrochlorothiazide—were administered to patients with symptoms diagnosed as hypertension (a diastolic blood pressure above 89 mmHg and a systolic blood pressure above 139 mmHg). Since essential hypertension is a complex multifactorial disease with an environmental component and a genetic interaction basis, we selected a […] patient sample from Sardinia, which ensured genetic homogeneity. Piazza, Science 260:1767-9 (1993). Patients were unrelated Sardinian from at least 2 generations. Approximately 75% of the patients were previously untreated for hypertension, whereas the remaining were absent from antihypertensive treatment for at least 6 months prior to testing, thus ensuring that modifications in blood pressure during the study were mostly due to the drug under study and not the spurious effects related to previous treatments.
After a 2-month pre-treatment period, during which blood pressure was measured periodically, patients with blood pressure (as average of 3 measurements performed in standard conditions) still over 140/90 (n=494) where randomly assigned to one of the following drugs: atenolol 100 mg b.i.d., hydrochlorothiazide (HCTZ) 25 mg u.i.d. or fosinopril 20 mg u.i.d. for 2 months. After a treatment was begun, patient blood pressure, heart rate and body weight were assessed every 2 weeks, and values at +4 and +8 weeks tabulated and considered for analysis.
Genomic DNA was extracted from the leukocytes of each individual using a genomic DNA extraction kit based on […]. Genomic DNA of the beta-1 adrenergic receptor gene was then amplified using standard PCR procedures. The PCR product was diluted 1:10 in EDTA 1 mM and then submitted for automated sequencing carried out with an Applied Biosystems Sequencer using dye primer chemistry.
To evaluate the association between each patient's genotype and the response of the individual to the respective drug, the change in blood pressure was analyzed from the baseline to the follow-up measurements at 4 and 8 weeks. A linear regression model was then used to adjust for the effect of baseline blood pressure levels and sex of the individual. The difference in average change of blood pressure between genotypes for each time interval was determined through analysis of covariance.

[1] = genotype AA (homozygous wild-type)
[2] = genotype GG (homozygous A145G variant)

Structure (SMILES) | Average Change in Blood Pressure [1] [mmHg] | Average Change in Blood Pressure (genotype AG (heterozygous)) [mmHg] | Average Change in Blood Pressure [2] [mmHg] | relative blood pressure response between drugs (individuals homozygous for A145G (GG), analysis of covariance, adjusted for baseline blood pressure and sex)
CCC(=O)O[C@@H](O[P@](=O)(CCCCc1ccccc1)CC(=O)N1C[C@H](C2CCCCC2)C[C@H]1C(=O)O)C(C)C [Fosinopril, fosinopril] | −12.3 | −8.6 | −23.0 | 
CC(C)NCC(O)COc1ccc(CC(N)=O)cc1 (stereo not shown) [Atenolol, atenolol] | −17.3 | −17.9 | −10.6 | 
NS(=O)(=O)c1cc2c(cc1Cl)NCNS2(=O)=O [Hydrochlorothiazide, hydrochlorothiazide] | −10.2 | −12.9 | −30.5 | more likely (p=0.0055) to experience a significant decrease in blood pressure
